Measurements from the NIST ThermoML archive (doi:10.1021/je060339m).

Conditions: Liquid

CCCOC(C)=O [propyl ethanoate]
mass density [kg/m3]
Conditions | 298.15 K | 303.15 K | 308.15 K | 313.15 K | 318.15 K | 323.15 K | 328.15 K | 333.15 K | 338.15 K | 343.15 K
100 kPa | 882 | 876.2 | 870.5 | 864.9 | 859.3 | 853.6 | 848 | 842.5 | 836.7 | 831.2
1000 kPa | 882.5 | 876.8 | 871.2 | 865.5 | 859.8 | 854.8 | 848.7 | 843.6 | 838 | 832.3
2000 kPa | 883.4 | 877.7 | 872.2 | 866.6 | 860.9 | 855.8 | 849.9 | 844.8 | 839.2 | –
3000 kPa | 884.3 | 878.8 | 873.2 | 867.6 | 862.1 | 856.9 | 851 | 845.9 | 840.5 | –
3300 kPa | 884.6 | 879 | 873.4 | 867.9 | 862.4 | 857.1 | 851.3 | 846.2 | 840.8 | –
5000 kPa | 886.4 | 880.8 | 875.3 | 869.9 | 864.4 | 859 | 853.7 | 848.3 | 842.8 | –
10000 kPa | 890.7 | 885.3 | 879.9 | 874.7 | 869.4 | 864.1 | 859 | 853.9 | 848.6 | –
15000 kPa | 894.8 | 889.5 | 884.3 | 879.2 | 874.1 | 869 | 864 | 859 | 853.9 | –
20000 kPa | 898.7 | 893.5 | 888.4 | 883.5 | 878.5 | 873.5 | 868.7 | 863.9 | 859 | –
25000 kPa | 902.5 | 897.4 | 892.4 | 887.6 | 882.8 | 877.9 | 873.3 | 868.6 | 863.8 | –
30000 kPa | 906.9 | 902 | 897.2 | 892.6 | 887.9 | 883.2 | 878.8 | 874.3 | 869.6 | –
35000 kPa | 911.7 | 906.9 | 902.3 | 897.7 | 893.2 | 888.8 | 884.4 | 880.1 | 875.5 | –
